According to US8673908B2, “Kynurenine production inhibitor” (Kyowa Hakko Kirin Co., Ltd., priority 2008, dated 2014):

test system: kynurenine production in IFN-γ-treated KATO-III cells; assay: Inhibitory activity on kynurenine production (Test Example 1); assay type: cell-based; settings: Homo sapiens, IFN-γ treatment, culture for 96 hours, read-out: IC50 value, inhibition of kynurenine production
Procedure, shortened: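 Read-out is absorbance at 480 nm of medium treated with trichloroacetic acid, then p-dimethylaminobenzaldehyde, to quantify kynurenine. DMSO-only wells with and without IFN-γ serve as references. Cells were KATO-III, 2,000 per well, 96 h at 37 °C/5% CO2 with compound (DMSO ≤0.1%) and IFN-γ at 31.25 ng/mL in the added suspension.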

SMILES	IC50 [nM]
Cc1noc(C)c1S(=O)(=O)Nc1nc2ccccc2nc1OC(c1cccnc1)C(F)(F)F (stereo not shown) [Compound 155, 3,5-dimethyl-N-{3-[2,2,2-trifluoro-1-(pyridin-3-yl)ethoxy]-quinoxalin-2-yl}isoxazole-4-sulfonamide]	< 1000
Cc1ccccc1S(=O)(=O)Nc1nc2ccccc2nc1OC(c1cccnc1)C(F)(F)F (stereo not shown) [Compound 156, 2-methyl-N-{3-[2,2,2-trifluoro-1-(pyridin-3-yl)ethoxy]-quinoxalin-2-yl}benzenesulfonamide]	< 1000
Nc1ccccc1S(=O)(=O)Nc1nc2ccccc2nc1OC(c1cccnc1)C(F)(F)F (stereo not shown) [Compound 157, 2-amino-N-{3-[2,2,2-trifluoro-1-(pyridin-3-yl)ethoxy]-quinoxalin-2-yl}benzenesulfonamide]	< 1000
COc1ccccc1S(=O)(=O)Nc1nc2ccccc2nc1OC(c1cccnc1)C(F)(F)F (stereo not shown) [Compound 158, 2-methoxy-N-{3-[2,2,2-trifluoro-1-(pyridin-3-yl)ethoxy]-quinoxalin-2-yl}benzenesulfonamide]	< 1000
O=S(=O)(Nc1nc2ccccc2nc1OCCCc1cccnc1)c1cccc(Cl)c1Cl [Compound 159, 2,3-dichloro-N-{3-[3-(pyridin-3-yl)propoxy]quinoxalin-2-yl}benzenesulfonamide]	< 1000
O=S(=O)(Nc1nc2ccccc2nc1OC(c1cccnc1)C(F)(F)F)c1ccsc1 (stereo not shown) [Compound 161, N-{3-[2,2,2-trifluoro-1-(pyridin-3-yl)ethoxy]quinoxalin-2-yl}thiophene-3-sulfonamide]	< 1000
Cc1cc(S(=O)(=O)Nc2nc3ccccc3nc2OC(c2cccnc2)C(F)(F)F)c(C)s1 (stereo not shown) [Compound 162, 2,5-dimethyl-N-{3-[2,2,2-trifluoro-1-(pyridin-3-yl)ethoxy]-quinoxalin-2-yl}thiophene-3-sulfonamide]	< 1000
Cc1nc(C)c(S(=O)(=O)Nc2nc3ccccc3nc2OC(c2cccnc2)C(F)(F)F)s1 (stereo not shown) [Compound 163, 2,4-dimethyl-N-{3-[2,2,2-trifluoro-1-(pyridin-3-yl)ethoxy]-quinoxalin-2-yl}thiazole-5-sulfonamide]	< 1000
O=S(=O)(Nc1nc2ccccc2nc1OC(c1cccnc1)C(F)(F)F)c1cc2ccccc2s1 (stereo not shown) [Compound 164, N-{3-[2,2,2-trifluoro-1-(pyridin-3-yl)ethoxy]quinoxalin-2-yl}benzo[b]thiophene-2-sulfonamide]	< 1000
CN1CCOc2cc(S(=O)(=O)Nc3nc4ccccc4nc3OC(c3cccnc3)C(F)(F)F)ccc21 (stereo not shown) [Compound 165, 4-methyl-N-{3-[2,2,2-trifluoro-1-(pyridin-3-yl)ethoxy]-quinoxalin-2-yl}-3,4-dihydro-2H-benzo[b][1,4]oxazine-7-sulfonamide]	< 1000
CC(C)(COc1nc2ccccc2nc1NS(=O)(=O)c1ccccc1Cl)c1cccnc1 [Compound 167, 2-chloro-N-{3-[2-methyl-2-(pyridin-3-yl)propoxy]quinoxalin-2-yl}benzenesulfonamide]	< 1000
CC(C)S(=O)(=O)Nc1nc2ccccc2nc1OC(c1cccnc1)C(F)(F)F (stereo not shown) [Compound 168, N-{3-[2,2,2-trifluoro-1-(pyridin-3-yl)ethoxy]quinoxalin-2-yl}propane-2-sulfonamide]	< 1000
O=S(=O)(Nc1nc2ccccc2nc1OC(c1cccnc1)C(F)(F)F)C1CCCC1 (stereo not shown) [Compound 169, N-{3-[2,2,2-trifluoro-1-(pyridin-3-yl)ethoxy]quinoxalin-2-yl}cyclopentanesulfonamide]	< 1000
Cc1nn(C)c(Cl)c1S(=O)(=O)Nc1nc2ccccc2nc1OC(c1cncn1C)C(F)(F)F (stereo not shown) [Compound 170, 5-chloro-1,3-dimethyl-N-{3-[2,2,2-trifluoro-1-(1-methyl-1H-imidazol-5-yl)ethoxy]quinoxalin-2-yl}-1H-pyrazole-4-sulfonamide]	< 1000
Cc1noc(C)c1S(=O)(=O)Nc1nc2ccccc2nc1OC(c1cncn1C)C(F)(F)F (stereo not shown) [Compound 171, 3,5-dimethyl-N-{3-[2,2,2-trifluoro-1-(1-methyl-1H-imidazol-5-yl)ethoxy]quinoxalin-2-yl}isoxazole-4-sulfonamide]	< 1000
O=S(=O)(Nc1nc2ccccc2nc1OC(CCc1cccnc1)C(F)(F)F)c1ccccc1Cl (stereo not shown) [Compound 172, 2-chloro-N-{3-[1,1,1-trifluoro-4-(pyridin-3-yl)butan-2-yloxy]quinoxalin-2-yl}benzenesulfonamide]	< 1000
O=S(=O)(Cc1ccccc1Cl)Nc1nc2ccccc2nc1OC(c1cccnc1)C(F)(F)F (stereo not shown) [Compound 173, 1-(2-chlorophenyl)-N-{3-[2,2,2-trifluoro-1-(pyridin-3-yl)-ethoxy]quinoxalin-2-yl}methanesulfonamide]	< 1000
CN(C)S(=O)(=O)Nc1nc2ccccc2nc1OC(c1cccnc1)C(F)(F)F (stereo not shown) [Compound 174, N-{3-[2,2,2-trifluoro-1-(pyridin-3-yl)ethoxy]quinoxalin-2-yl}-N′,N′-dimethyl-sulfuric diamide]	< 1000
Cn1cncc1C(Oc1nc2ccccc2nc1NS(=O)(=O)c1ccccc1Cl)C(F)(F)F (stereo not shown) [Compound 175, 2-chloro-N-{3-[2,2,2-trifluoro-1-(1-methyl-1H-imidazol-5-yl)ethoxy]quinoxalin-2-yl}benzenesulfonamide]	< 1000

SMILES	IC50 [nM]
CC(COc1nc2ccccc2nc1NS(=O)(=O)c1ccccc1Cl)Cc1cccnc1 (stereo not shown) [Compound 176, 2-chloro-N-{3-[2-methyl-3-(pyridin-3-yl)propoxy]quinoxalin-2-yl}benzenesulfonamide]	< 1000
CC(CCOc1nc2ccccc2nc1NS(=O)(=O)c1ccccc1Cl)c1cccnc1 (stereo not shown) [Compound 177, 2-chloro-N-{3-[3-(pyridin-3-yl)butoxy]quinoxalin-2-yl}-benzenesulfonamide]	< 1000
Cc1noc(C)c1S(=O)(=O)Nc1nc2ccccc2nc1OC(c1cncs1)C(F)(F)F (stereo not shown) [Compound 178, 3,5-dimethyl-N-{3-[2,2,2-trifluoro-1-(thiazol-5-yl)ethoxy]-quinoxalin-2-yl}isoxazole-4-sulfonamide]	< 1000
CC(C)CS(=O)(=O)Nc1nc2ccccc2nc1OC(c1cccnc1)C(F)(F)F (stereo not shown) [Compound 180, 2-methyl-N-{3-[2,2,2-trifluoro-1-(pyridin-3-yl)ethoxy]-quinoxalin-2-yl}propane-1-sulfonamide]	< 1000
O=S(=O)(Nc1nc2ccccc2nc1OC(c1cccnc1)C(F)(F)F)c1cccc(Cl)c1 (stereo not shown) [Compound 181, 3-chloro-N-{3-[2,2,2-trifluoro-1-(pyridin-3-yl)ethoxy]-quinoxalin-2-yl}benzenesulfonamide]	< 1000
O=S(=O)(Nc1nc2ccccc2nc1OC(c1cccnc1)C(F)(F)F)c1ccc(Cl)cc1 (stereo not shown) [Compound 182, 4-chloro-N-{3-[2,2,2-trifluoro-1-(pyridin-3-yl)ethoxy]-quinoxalin-2-yl}benzenesulfonamide]	< 1000
O=S(=O)(Nc1nc2ccccc2nc1OC(c1cccnc1)C(F)(F)F)C1CCCCC1 (stereo not shown) [Compound 183, N-{3-[2,2,2-trifluoro-1-(pyridin-3-yl)ethoxy]quinoxalin-2-yl}cyclohexanesulfonamide]	< 1000
Cc1nn(C)c(Cl)c1S(=O)(=O)Nc1nc2ccccc2nc1OC(c1ccccc1)C(F)(F)F (stereo not shown) [Compound 184, 5-chloro-1,3-dimethyl-N-[3-(2,2,2-trifluoro-1-phenyl-ethoxy)quinoxalin-2-yl]-1H-pyrazole-4-sulfonamide]	< 1000
Cc1noc(C)c1S(=O)(=O)Nc1nc2ccccc2nc1OC(c1ccccc1)C(F)(F)F (stereo not shown) [Compound 185, 3,5-dimethyl-N-[3-(2,2,2-trifluoro-1-phenylethoxy)-quinoxalin-2-yl]isoxazole-4-sulfonamide]	< 1000
Cc1nn(C)c(Cl)c1S(=O)(=O)Nc1nc2ccccc2nc1OC(c1cncs1)C(F)(F)F (stereo not shown) [Compound 186, 5-chloro-1,3-dimethyl-N-{3-[2,2,2-trifluoro-1-(thiazol-5-yl)ethoxy]quinoxalin-2-yl}-1H-pyrazole-4-sulfonamide]	< 1000
CCC(C)S(=O)(=O)Nc1nc2ccccc2nc1OC(c1cccnc1)C(F)(F)F (stereo not shown) [Compound 187, N-{3-[2,2,2-trifluoro-1-(pyridin-3-yl)ethoxy]quinoxalin-2-yl}butane-2-sulfonamide]	< 1000
O=S(=O)(Nc1nc2ccccc2nc1OC(c1cccnc1)C(F)(F)F)N1CCOCC1 (stereo not shown) [Compound 188, N-{3-[2,2,2-trifluoro-1-(pyridin-3-yl)ethoxy]quinoxalin-2-yl}morpholine-4-sulfonamide]	< 1000
O=S(=O)(Nc1nc2ccccc2nc1OC(c1cccnc1)C(F)(F)F)NC1CC1 (stereo not shown) [Compound 189, N-cyclopropyl-N′-{3-[2,2,2-trifluoro-1-(pyridin-3-yl)-ethoxy]quinoxalin-2-yl}sulfuric diamide]	< 1000
CCS(=O)(=O)Nc1nc2ccccc2nc1OC(c1cccnc1)C(F)(F)F (stereo not shown) [Compound 190, N-{3-[2,2,2-trifluoro-1-(pyridin-3-yl)ethoxy]quinoxalin-2-yl}ethanesulfonamide]	< 1000
CCCCS(=O)(=O)Nc1nc2ccccc2nc1OC(c1cccnc1)C(F)(F)F (stereo not shown) [Compound 191, N-{3-[2,2,2-trifluoro-1-(pyridin-3-yl)ethoxy]quinoxalin-2-yl}butane-1-sulfonamide]	< 1000
CCCS(=O)(=O)Nc1nc2ccccc2nc1OC(c1ccc(C)nc1)C(F)(F)F (stereo not shown) [Compound 192, N-{3-[2,2,2-trifluoro-1-(6-methylpyridin-3-yl)ethoxy]-quinoxalin-2-yl}propane-1-sulfonamide]	< 1000
O=S(=O)(CC(F)(F)F)Nc1nc2ccccc2nc1OC(c1cccnc1)C(F)(F)F (stereo not shown) [Compound 193, 2,2,2-trifluoro-N-{3-[2,2,2-trifluoro-1-(pyridin-3-yl)-ethoxy]quinoxalin-2-yl}ethanesulfonamide]	< 1000
CCCNS(=O)(=O)Nc1nc2ccccc2nc1OC(c1cccnc1)C(F)(F)F (stereo not shown) [Compound 194, N-propyl-N′-{3-[2,2,2-trifluoro-1-(pyridin-3-yl)ethoxy]-quinoxalin-2-yl}sulfuric diamide]	< 1000
